Assay results published in patent EP0393104B1, “MEASUREMENT OF PGE 2 (PROSTAGLANDIN E 2) LEVELS IN PATIENTS WITH CHRONIC INFLAMMATORY BOWEL DISEASE” (priority 1987, dated 1989).

Assays:
[1] = system: PGE2; experiment: Equilibrium in vivo dialysis of rectum with radioimmunoassay of PGE2 (enema trial); design: species or system patients; settings: for Concentrations of PGE2 in rectal lumen: median, enema groups irrespective of SAZ (+/-), SAZ line = no enema, with SAZ maintenance; for effect of treatment with enemas on PGE2 concentrations in the rectal lumen: whole group, active UC, 2-4 weeks, 5-ASA p>0.5, prednisolone p<0.05 (Wilcoxon)
Experimental: (§1) The study was carried out as a block-randomized, double-blind trial. Before entry, clinical disease activity was assessed, and equilibrium in vivo dialysis of rectum was performed before the assessment of endoscopic and histologic disease activity. […] Primary stratification was done for patients already on maintenance treatment with SAZ. At day 15 the equilibrium in vivo dialysis of rectum was repeated, and clinical, endoscopic, and histologic activities were reassessed. Patients in complete clinical and endoscopic remission discontinued treatment with enemas, whereas the remainder continued therapy for another 14 days. In all cases equilibrium in vivo dialysis of rectum and assessment of disease activity were repeated at day 29. Withdrawal criteria included intolerance to treatment or deterioration (severe disease, C3) requiring systemic glucocorticoids.
In vivo dialysis of rectum was performed after insertion of a 12-cm-long dialysis bag (volume 4 ml; Visking seamless cellulose tubing 8/32 filled with Rheomacrodex@; Pharmacia, Uppsala, Sweden) containing 10% dextran (mean mol wt 40,000) in saline into the emptied rectum. To obtain equilibrium with the fluid covering the surface of rectal mucosa, the dialysis bag was left for 4 h before its contents were emptied into a test tube, which was stored immediately at -20°C (rectal dialysate) for analysis within 2 wk.
Prostaglandin E2 was measured as previously described in detail (K. Bukhave, J. Rask-Madsen J, 'Prostaglandin E2 in jejunal fluids and its potential diagnostic value for selecting patients with indomethacin-sensitive diarrhoea', 1981 European Journal of Clinical Investigation, 11:191-7) by a radioimmunologic method validated by gas chromatography-mass spectrometry (K. Bukhave, K Green, J. Rask-Madsen, 'Comparison of radioimmunological determinations with gas chromatography mass spectrometry dosage', 1983 Biomedical Mass Spectrometry, 10:265-8). The method included purification by extraction with ethylacetate/cyclo- hexane (1:1) and chromatography on microcolumns of Sephadex LH-20 (Pharmacia AB, Sweden) before performing the radioimmunoassay itself on the eluate fraction containing PGE2.

[2] = system: ulcerative proctosigmoiditis; format: in vivo, patients
Experimental: For patients maintained on SAZ (1 g b.i.d.) this treatment was kept unchanged throughout the trial. No other drugs were given.
as §1
The clinical activity was based on a diary in which the number of bowel movements and the presence or absence of blood were registered by the patient and the objective findings were registered by the investigator. To minimize variation among observers each patient was examined on all study days by the same investigator, who was unaware of the results of the rectal dialyses.

[3] = HPLC of ADS, 5-ASA and Ac-5-ASA in serum; format: in vivo, patients; settings: ulcerative colitis, read-out: Concentrations in serum
Experimental: (§2) Aone year treatment period was planned including scheduled visits at two weeks and at two, four, six, eight, ten, and 12 months, in addition to in-between visits, if needed. Before entry and at each visit the clinical disease activity was assessed (see below) and a laboratory screening was done. This included blood haemoglobin, reticulocyte count, erythrocyte sedimentation rate, leucocyte count, leucocyte differential count, platelet count, serum concentrations of Na, K, Ca, albumin, creatinine, urea, alanine aminotransferase, lactate dehydrogenase, alkaline phosphatase, bilirubin, and plasma prothrombin, in addition to urine analysis for protein and glucose and microscopy for erythrocytes, leukocytes, and casts.
(§3) The lower detection limits in serum and in faecal dialysates were 1.0 umol/I and 6.0 umol/l, respectively. Prostaglandin E2 was measured by the radioimmunologic method, referred to above, validated by gas chromatography-mass spectrometry. These measurements were done blindly and independently of the assessment of disease activity and clinicians were unaware of the results until the data had been completed.

[4] = system: PGE2; experiment: Equilibrium in vivo dialysis of rectum with radioimmunoassay of PGE2 (ADS study); design: species or system patients; settings: mean±SD
Experimental: (§4) Before entry, at the two week's visit, and at the six and 12 months' visits equilibrium in vivo dialysis of faeces as well as equilibrium in vivo dialysis of rectum were done prior to endoscopy of rectum and sigmoid colon with biopsies. ADS was administered in gelatin capsules, each containing 250 mg of the powdered drug without additives.
Equilibrium in vivo dialysis of rectum was performed after insertion of a 12-cm-long dialysis bag into the emptied rectum as previously described (K. Lauritsen, L.S. Laursen, K. Bukhave, J. Rask-Madsen, "Effects of topical 5-aminosalicylic acid and prednisolone on prostaglandin E2 and leukotriene B4 levels determined by equilibrium in vivo dialysis of rectum in relapsing ulcerative colitis, Gastroenterology 1986;91:837-844). The bag was left for four hours and its contents (rectal dialysate) were analyzed for concentrations of PGE2 (rectal PGEZ).
as §3

[5] = system: ulcerative colitis and Crohn's colitis; experiment: Open one-year dose-escalation study of ADS: efficacy, tolerance and safety; format: in vivo, patients; settings: for patients who experienced a relapse: remaining UC patients
Description: Patients fulfilling the following entry criteria were candidates for the study: (a) proven UC or proven CC; (b) relapsing disease (i.e., a relapse within the past six months) or chronic continous disease activity (i.e. absence of remission (definition: see below) for three months or more); (c) refractory to SAZ (i.e., relapsing disease despite maintenance treatment with SAZ 2 g/day or chronic continous disease despite treatment with glucocorticoids and SAZ) or intolerant of SAZ (i.e., allergic to or otherwise intolerant of SAZ).
The study design was open with an initial dose of ADS 1 g/day (0.5 g b.i.d.), in SAZ intolerant patients. In SAZ refractory patients the initial dose was 2 g/day (1 g b.i.d.). […] In patients on concomitant corticosteroids the dose was gradually tapered and, if possible, the administration was stopped.
as §2
The clinical activity was based on a diary and the objective findings registered by the investigator. To minimize variation among observers each patient was examined on all study days by the same investigator. All days the week preceeding a scheduled visit the patient recorded the number of bowel movements in the diary, in addition to the presence or absence of blood, and graded abdominal pain and general well-being according to W. R. Best, J. M. Becktel, J. W. Singleton, 'Rederived values of the eight coefficients of the Crohn's Disease Activity Index (CDAI)', 1979 Gastroenterology, 77:843-6) for calculation of the Crohn's disease activity index (CDAI). […] Remission in patients with CC was defined as a CDAI <150 and no evidence of inflammation on sigmoidoscopy. […] Due to the open design of the study no further clinical or endoscopic estimations of efficacy were done.

[6] = HPLC of ADS, 5-ASA and Ac-5-ASA in faecal dialysates (equilibrium in vivo dialysis of faeces); design: species or system patients; settings: for concentration: ulcerative colitis, read-out: Concentrations in faecal dialysates
Experimental: as §4
(§5) Equilibrium in vivo dialysis of faeces was done as previously described in detail by pooling the contents of five swallowed dialysis bags following their intestinal transit (faecal dialysate).
as §3

[7] = system: ulcerative colitis; settings: human, in vivo, po; cited from earlier work
[8] = system: PGE2; experiment: Equilibrium in vivo dialysis of faeces with radioimmunoassay of PGE2 (ADS study); design: species or system patients; settings: mean±SD
Experimental: as §4, §5, §3

[9] = clinical activity 2-3 (moderate-severe)
[10] = endoscopic activity 0 (inactive)
[11] = endoscopic activity 2 (moderate)
[12] = number of patients, enemas once daily 2-4 wk, 5-ASA n=13, prednisolone n=11
[13] = number of these patients on additional SAZ maintenance (figure in brackets)

Nc1ccc(O)c(C(=O)O)c1 [5-ASA, 5-amino-salicylic acid]
Concentrations of PGE2 in rectal lumen ([1]; clinical activity 0 (inactive)): 0.71(n=7) (0.18-6.0) ng/ml | Concentrations of PGE2 in rectal lumen ([1]; clinical activity 1 (mild)): 24(n=5) (2.5-58) ng/ml | Concentrations of PGE2 in rectal lumen [1, 9]: 33(n=8) (14-120) ng/ml | Concentrations of PGE2 in rectal lumen [1, 10]: 0.75(n=3) (0.18-3.7) ng/ml | Concentrations of PGE2 in rectal lumen ([1]; endoscopic activity 1 (mild)): 5.5(n=4) (0.29-6.2) ng/ml | Concentrations of PGE2 in rectal lumen [1, 11]: 24(n=8) (2.5-58) ng/ml | Concentrations of PGE2 in rectal lumen ([1]; endoscopic activity 3 (severe)): 31(n=5) (20-120) ng/ml | PGE2 levels in the rectal lumen ([1]; only those patients responding to treatment): decreased toward control levels | effect of treatment with enemas on PGE2 concentrations in the rectal lumen [1]: No significant effects | difficulties in retaining the enemas ([2]; human, in vivo): 2 | Outcome of treatment: Unchanged or worse [2, 12]: 6 | Outcome of treatment: Unchanged or worse (on sulfasalazine) [2, 13]: 3

O=C(O)c1cc(N=Nc2ccc(O)c(C(=O)O)c2)ccc1O [Olsalazine, disodium-azodisalicylate]
concentration ([3]; Olsalazine dose/day 1 g (n=9), mean±SD of average in each patient): 9.2 ± 3.4 µM | concentration ([3]; Olsalazine dose/day 2 g (n=14), mean±SD): 16 ± 6.8 µM | concentration ([3]; Olsalazine dose/day 3 g (n=20), mean±SD): 22 ± 8.1 µM | concentration ([3]; Olsalazine dose/day 4 g (n=20), mean±SD): 25 ± 11 µM | Rectal PGE2 levels ([4]; Crohn's colitis (n=9), Month 6, Entry 4.0±5.1): 5.0±4.8 (0.4-13.0) ng/ml | Rectal PGE2 levels ([4]; Crohn's colitis (n=9), Month 12, Entry 4.0±5.1): 3.0±5.7 (0.1-14.6) ng/ml | Rectal PGE2 levels ([4]; Ulcerative colitis, SAZ intolerant, n=8, Month 6, Entry 8.5±15.0): 5.7±11.9 (0.15-32.6) ng/ml | Rectal PGE2 levels ([4]; Ulcerative colitis, SAZ intolerant, n=8, Month 12, Entry 8.5±15.0): 1.6±2.0 (0.32-5.3) ng/ml | Rectal PGE2 levels ([4]; Ulcerative colitis, SAZ refractory, n=23, Month 6, Entry 16.0±15.3, normal range <0.6, p<0.05): 8.1±12.3 (0.05-42.8) ng/ml | Rectal PGE2 levels ([4]; Ulcerative colitis, SAZ refractory, n=23, Month 12, Entry 16.0±15.3): 13.6±15.4 (0.12-49.0) ng/ml | withdrawals due to drug intolerance ([5]; 40 patients, ADS 1-4 g/day up to one year): No patients were withdrawn due to drug intolerance | treatment failures ([5]; UC patients intolerant of SAZ): one of eight | treatment failures ([5]; UC patients refractory to SAZ, of 23): 12 | slightly increased levels of alanine aminotransferase or alkaline phosphatase ([5]; in vivo): six cases | treatment failures (CDAI <150 without sigmoidoscopic evidence of inflammation never obtained) ([5]; patients with CC): Five of the nine | treatment failures (clinical and sigmoidoscopic remission never obtained) ([5]; patients with UC (n=31)): Thirteen patients | patients who experienced a relapse ([5]; on 1 g/day): four | patients who experienced a relapse ([5]; on 2 g/day): two | patients who experienced a relapse ([5]; on 3 g/day): eight | patients who experienced a relapse ([5]; on 4 g/day): two | concentration ([6]; Olsalazine dose/day 1 g (n=7), mean±SD of averages in each patient): 100 ± 140 µM | concentration ([6]; Olsalazine dose/day 2 g (n=20), mean±SD): 340 ± 480 µM | concentration ([6]; Olsalazine dose/day 3 g (n=14), mean±SD): 400 ± 580 µM | concentration ([6]; Olsalazine dose/day 4 g (n=18), mean±SD): 270 ± 410 µM | patients in whom the split ratio was below 90%, at least on one occasion ([6]; of all patients): 28% | loose or watery stools (major adverse effect) [7]: 10% | Fecal PGE2 levels ([8]; Crohn's colitis (n=9), Month 6, Entry 1.76±1.94): 0.70±0.68 (0.08-1.81) ng/ml | Fecal PGE2 levels ([8]; Crohn's colitis (n=9), Month 12, Entry 1.76±1.94): 1.23±2.06 (0.04-5.39) ng/ml | Fecal PGE2 levels ([8]; Ulcerative colitis, SAZ intolerant, n=8, Month 6, Entry 1.09±1.18): 0.48±0.85 (0.04-2.55) ng/ml | Fecal PGE2 levels ([8]; Ulcerative colitis, SAZ intolerant, n=8, Month 12, Entry 1.09±1.18, p<0.05): 0.16±0.05 (0.08-0.22) ng/ml | Fecal PGE2 levels ([8]; Ulcerative colitis, SAZ refractory, n=23, Month 6, Entry 1.65±1.80, normal range <0.5, p<0.05): 0.44±1.03 (0.05-4.72) ng/ml | Fecal PGE2 levels ([8]; Ulcerative colitis, SAZ refractory, n=23, Month 12, Entry 1.65±1.80, p<0.05): 0.77±1.09 (0.06-3.73) ng/ml

C[C@]12C=CC(=O)C=C1CC[C@@H]1[C@@H]2[C@@H](O)C[C@@]2(C)[C@H]1CC[C@]2(O)C(=O)CO [Prednisolone, prednisolone]
Concentrations of PGE2 in rectal lumen ([1]; clinical activity 0 (inactive)): 1.6(n=9) (0.16-5.0) ng/ml | Concentrations of PGE2 in rectal lumen ([1]; clinical activity 1 (mild)): 5.4(n=6) (0.58-42) ng/ml | Concentrations of PGE2 in rectal lumen [1, 9]: 9.5(n=3) (5.9-12) ng/ml | Concentrations of PGE2 in rectal lumen [1, 10]: 0.82(n=8) (0.16-5.0) ng/ml | Concentrations of PGE2 in rectal lumen ([1]; endoscopic activity 1 (mild)): 2.8(n=7) (0.57-3.9) ng/ml | Concentrations of PGE2 in rectal lumen [1, 11]: 10.5(n=3) (5.5-42) ng/ml | effect of treatment with enemas on PGE2 concentrations in the rectal lumen [1]: inhibited PGE2 concentrations significantly | Outcome of treatment: Clinical and endoscopic remission ([2]; number of patients, enemas once daily 2-4 wk, 5-ASA 1000 mg (n=13), prednisolone 25 mg (n=11)): 8 | Outcome of treatment: Clinical but not endoscopic remission [2, 12]: 1 (1) | Outcome of treatment: Unchanged or worse [2, 12]: 2 (2) | Outcome of treatment: Clinical and endoscopic remission (on SAZ) ([2]; number of these patients on additional SAZ maintenance 2 g/day (figure in brackets)): 3 | Outcome of treatment: Clinical but not endoscopic remission (on SAZ) [2, 13]: 1 (1) | Outcome of treatment: Unchanged or worse (on sulfasalazine) [2, 13]: 2 (2)
